Laboratory results: the supplement of paper PMC10307832

Legend:
Assay in all cases: relative viability (nuclei count vs DMSO), 5 days (fraction); higher = more cells survive
Vemurafenib + Vorinostat = compound: CCCS(=O)(=O)Nc1ccc(F)c(C(=O)c2c[nH]c3ncc(-c4ccc(Cl)cc4)cc23)c1F [Vemurafenib] + O=C(CCCCCCC(=O)Nc1ccccc1)NO [Vorinostat] (partner 1 µM)
Procedure, shortened: (§1)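 Lung cancer cell lines in 1536-well plates were dosed by pin tool the day after seeding, either with one drug alone or with a fixed anchor-drug dose plus five library-drug doses (not always all listed) in √10 steps. After 5 days, cells were fixed and their nuclei stained in one step (final 0.05% Triton X-100, 1% formaldehyde, 1 ug/ml Hoechst), then counted on 4× images. Relative viability is the nuclei count in treated wells divided by that in vehicle wells. Values are medians of duplicate plates.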

Alpelisib + AZD7762 = compound: Cc1nc(NC(=O)N2CCC[C@H]2C(N)=O)sc1-c1ccnc(C(C)(C)C(F)(F)F)c1 [Alpelisib] + NC(=O)Nc1cc(-c2cccc(F)c2)sc1C(=O)N[C@H]1CCCNC1 [AZD7762] (partner 0.2 µM)
Procedure, shortened: as §1

Vemurafenib + Trametinib = compound: CCCS(=O)(=O)Nc1ccc(F)c(C(=O)c2c[nH]c3ncc(-c4ccc(Cl)cc4)cc23)c1F [Vemurafenib] + CC(=O)Nc1cccc(-n2c(=O)n(C3CC3)c(=O)c3c(Nc4ccc(I)cc4F)n(C)c(=O)c(C)c32)c1 [Trametinib] (partner 0.02 µM)
Procedure, shortened: as §1

OSI-027 + Tozasertib = compound: COc1cccc2cc(-c3nc([C@H]4CC[C@H](C(=O)O)CC4)n4ncnc(N)c34)[nH]c12 [OSI-027] + Cc1cc(Nc2cc(N3CCN(C)CC3)nc(Sc3ccc(NC(=O)C4CC4)cc3)n2)n[nH]1 [Tozasertib] (partner 0.1 µM)
Procedure, shortened: as §1

Row | Cell Line | relative viability (Vemurafenib + Vorinostat; first compound 0.03162 µM) | relative viability (Vemurafenib + Vorinostat; first compound 0.1 µM) | relative viability (Vemurafenib + Vorinostat; first compound 0.3162 µM) | relative viability (Vemurafenib + Vorinostat; first compound 1 µM) | relative viability (Alpelisib + AZD7762; first compound 0.04 µM) | relative viability (Alpelisib + AZD7762; first compound 0.1265 µM) | relative viability (Alpelisib + AZD7762; first compound 0.4 µM) | relative viability (Alpelisib + AZD7762; first compound 1.265 µM) | relative viability (Alpelisib + AZD7762; first compound 4 µM) | relative viability (Vemurafenib + Trametinib; first compound 0.03162 µM) | relative viability (Vemurafenib + Trametinib; first compound 0.1 µM) | relative viability (Vemurafenib + Trametinib; first compound 0.3162 µM) | relative viability (Vemurafenib + Trametinib; first compound 1 µM) | relative viability (OSI-027 + Tozasertib; first compound 0.01 µM) | relative viability (OSI-027 + Tozasertib; first compound 0.03162 µM) | relative viability (OSI-027 + Tozasertib; first compound 0.1 µM) | relative viability (OSI-027 + Tozasertib; first compound 0.3162 µM) | relative viability (OSI-027 + Tozasertib; first compound 1 µM)
1 | IA-LM | 0.975 | 0.914 | 0.946 | 0.966 |  |  |  |  |  |  |  |  |  |  |  |  |  | 
2 | LC-2-ad | 0.627 | 0.669 | 0.364 | 0.687 | 0.812 | 0.874 | 0.863 | 0.684 | 0.583 | 0.868 | 0.815 | 0.998 | 0.921 | 0.464 | 0.4 | 0.449 | 0.443 | 0.397
3 | LCLC-97TM1 |  | 0.74 | 0.777 | 0.42 | 0.165 | 0.305 | 0.34 | 0.289 | 0.166 |  | 0.184 | 0.201 | 0.268 | 0.299 | 0.192 | 0.228 | 0.18 | 0.0982
4 | LCLC-103H | 0.728 | 0.791 | 0.657 | 0.721 | 0.72 | 0.872 | 0.631 | 0.61 | 0.591 | 0.668 | 0.619 | 0.685 | 0.768 | 0.49 | 0.424 | 0.489 | 0.44 | 0.333
5 | LK-2 | 0.261 | 0.271 | 0.3 | 0.247 | 0.402 | 0.253 | 0.442 | 0.209 | 0.123 | 0.889 | 0.693 | 1.12 | 0.607 | 0.186 | 0.188 | 0.144 | 0.162 | 0.145
6 | LOU-NH91 | 0.87 | 0.742 | 0.692 | 0.933 | 0.735 | 0.608 | 0.663 | 0.556 | 0.543 | 0.743 | 0.656 | 0.642 | 0.861 | 0.656 | 0.617 | 0.571 | 0.658 | 0.484
7 | LU99A | 0.513 | 0.578 |  | 0.466 | 0.335 | 0.361 | 0.408 | 0.365 | 0.398 | 0.521 | 0.563 |  | 0.664 | 0.249 | 0.302 | 0.252 | 0.239 | 0.175
8 | LXF-289 | 0.708 | 0.656 | 0.805 | 0.789 | 1.05 | 1.1 | 1.21 | 1.18 | 1.27 | 0.656 | 0.599 | 0.697 | 0.733 | 0.17 | 0.209 | 0.201 | 0.195 | 0.133
9 | NCI-H23 | 0.53 | 0.588 | 0.561 | 0.402 | 0.23 | 0.211 | 0.396 | 0.154 | 0.224 | 0.295 | 0.314 | 0.457 | 0.366 | 0.636 | 0.269 | 0.34 | 0.413 | 0.306
10 | NCI-H322M | 0.84 |  | 1.11 | 0.829 | 0.594 | 0.556 | 0.47 | 0.424 | 0.458 | 0.462 |  | 0.723 | 0.547 | 0.488 | 0.485 | 0.413 | 0.397 | 0.307
